Measured values from the supplement of paper PMC10307832.

Key:
Assay in all cases: relative viability (nuclei count vs DMSO), 5 days (fraction); higher = more cells survive
Veliparib + Crizotinib = compound: C[C@]1(c2nc3c(C(N)=O)cccc3[nH]2)CCCN1 [Veliparib] + C[C@@H](Oc1cc(-c2cnn(C3CCNCC3)c2)cnc1N)c1c(Cl)ccc(F)c1Cl [Crizotinib] (partner 1 µM)
How it was run: (§1)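 Relative viability is defined as nuclei in treated wells over nuclei in vehicle wells. Duplicate plates were run and medians reported. Lung cancer cell lines in 1536-well plates were dosed by pin tool one day after seeding, with one drug or with a fixed anchor-drug dose plus five library-drug doses (not always all listed) in √10 steps, and nuclei were counted after 5 days.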

[1] = compound: COC1=CC=C(C=C1)CN2C=CC3=C2C=C(C=C3)C(=O)NO + Cc1nc(NC(=O)N2CCC[C@H]2C(N)=O)sc1-c1ccnc(C(C)(C)C(F)(F)F)c1 [Alpelisib] (partner 2 µM)
How it was run: as §1

[2] = compound: COC1=CC=C(C=C1)CN2C=CC3=C2C=C(C=C3)C(=O)NO + CCNC(=O)c1noc(-c2cc(C(C)C)c(O)cc2O)c1-c1ccc(CN2CCOCC2)cc1 [Luminespib] (partner 0.01 µM)
How it was run: as §1

[3] = compound: COC1=CC=C(C=C1)CN2C=CC3=C2C=C(C=C3)C(=O)NO + O=C(c1cc(Cc2n[nH]c(=O)c3ccccc23)ccc1F)N1CCN(C(=O)C2CC2)CC1 [Olaparib] (partner 8 µM)
How it was run: as §1

SW 1573
relative viability (Veliparib + Crizotinib; first compound 0.02 µM): 0.986
relative viability (Veliparib + Crizotinib; first compound 0.06325 µM): 0.629
relative viability (Veliparib + Crizotinib; first compound 0.2 µM): 0.781
relative viability (Veliparib + Crizotinib; first compound 0.6325 µM): 0.85
relative viability (Veliparib + Crizotinib; first compound 2 µM): 0.79
relative viability ([1]; first compound 0.253 µM): 0.824
relative viability ([1]; first compound 0.8 µM): 0.734
relative viability ([1]; first compound 2.53 µM): 0.72
relative viability ([1]; first compound 8 µM): 0.787
relative viability ([2]; first compound 0.253 µM): 0.522
relative viability ([2]; first compound 0.8 µM): 0.279
relative viability ([2]; first compound 2.53 µM): 0.298
relative viability ([2]; first compound 8 µM): 0.491
relative viability ([3]; first compound 0.253 µM): 0.543
relative viability ([3]; first compound 0.8 µM): 0.465
relative viability ([3]; first compound 2.53 µM): 0.432
relative viability ([3]; first compound 8 µM): 0.334
